Assay results taken from patent publication US20020119198A1, “Self-emulsifying drug delivery systems for extremely water-insoluble, lipophilic drugs” (priority 2000, published 2002).

Experiments:
[1] = Solubility of the active agent in a typical aqueous formulation; type: physicochemical; settings: room temperature
[2] = Solubility of the active agent in the formulation vehicle; type: physicochemical

## Cc1cc(C)c(C=C2C(=O)Nc3ccccc32)[nH]1 [3-[(2,4-dimethylpyrrol-5-yl)methylene]-2-indolinone]
[1]
  solubility in a typical aqueous formulation: approximately 10 nanograms per milliliter
[2]; vehicle free of polyvinylpyrrolidone
  solubility, drug dissolved in vehicle: about 15 mg/g
[2]; vehicle of the present invention (with polyvinylpyrrolidone)
  solubility, drug dissolved in vehicle: over 30 mg/g
